This is an account of results in patent publication US12167744B2, “Nicotine liquid formulations for aerosol devices and methods thereof” (JUUL Labs, Inc., priority 2013, dated 2024).

The conditions of data set [1]: thermal decomposition of the acid; cited from earlier work.
The conditions of data set [2]: nicotine:tartaric acid 1:2; in PG or VG or any mixture of PG and VG at ambient conditions. From the text:
In some embodiments, acids that have poor solubility in the composition constituents are inappropriate for use in certain embodiments of the compositions herein. […] As used herein, weight percentage (w/w) refers to the weight of the individual component over the weight of the total formulation.

Where only a bound is given, the exact number is not on record here.

On to `O=C(O)CC(O)(CC(=O)O)C(=O)O` [citric acid], for which the decomposition temperature in data set [1] is 175 °C.

As for `CN1CCCC1c1cccnc1.O=C(O)C(O)C(O)C(=O)O` (stereo not drawn) [nicotine bitartrate], the “concentration at which no solution is produced” value in data set [2] is listed as < 0.5 % (w/w) nicotine.

`O=C(O)CC(O)C(=O)O` (stereo not drawn) [malic acid]: the decomposition temperature in data set [1] is 150 °C.
